Earlier results, collected in patent publication US6486129B1, “Antithrombotic compounds” (Akzo Nobel N.V., priority 1998, dated 2002).

Biological target: thrombin (Homo sapiens, UniProt P00734)
Details: background description of prior art

Nα-(2-naphthylsulfonyl)-glycyl-4-amidinophenylaianinpiperidide [NAPAP]
thrombin specificity: low thrombin specificity
